Peptide text beside a SMILES is read from it. * marks the point of attachment. Stearoyl = CCCCCCCCCCCCCCCCCC(=O)*; Palmitoyl = CCCCCCCCCCCCCCCC(=O)*
Key:
[1] = system: HXB2-mediated cell fusion (HL2/3 effector cells, TZM-b1 target cells); type: cell-based, HIV-1; details: HXB2-mediated cell fusion
Procedure: HIV-1 mediated cell fusion inhibition assay: the effector cells (HL2/3 cells) and target cells (TZM-b1 cells) were provided by the AIDS Reagent Program of National Institutes of Health (NIH) (catalog numbers: 1294 and 8129, respectively). The both cells were adherent cells and were cultured in a DMEM cell culture medium containing ampicillin/streptomycin double antibiotics and 10% fetal bovine serum (FBS). The TZM-b1 was first added to a 96-well cell culture plate (1×10^4 cells/well), and cultured overnight at 37° C. and 5% CO2. The test substance was diluted with the DMEM cell culture medium by 3 folds and mixed with HL2/3 effector cells (3×10^4 cells/well), then added to the TZM-b1 target cells, and further cultured for 6 hours to fully fuse. The activity of luciferase (relative fluorescence units, RLU) was then determined using a luciferase reporter gene kit from Promega company according to the instructions. The inhibition rate of each sample at each concentration was calculated, and the half effective inhibitory concentration (IC50 value) was calculated using GraphPad Prism Software 2.01.

[2] = pharmacokinetic analysis in SD rats; details: for level at 72 h / level at time molar at 72 h: both, SD, rat, serum, 6 mg/kg
Procedure: The pharmacokinetic parameters were calculated using a non-compartmental analysis model (NCA).

[3] = system: SHIV strain SF162P3; assay: therapeutic effect in monkey infection model; type: in vivo, Chinese rhesus monkeys
Procedure: Six adult Chinese rhesus monkeys (numbered A to F, half male and half female) were used in the test, and antibodies to SIV, herpesvirus B, and simian T-lymphotropic virus were determined to be negative. The SHIV strain SF162P3 was provided by the AIDS Reagent Program of NIH in the United States, and was amplified on peripheral blood mononuclear cells (PBMC) of the monkeys, and the TCID50 was determined. Monkeys were intravenously inoculated with 1,000 TCID50 of the SF162P3 virus, and changes in plasma viral load (RNA copy number/ml) in the monkeys were measured periodically. […] The plasma samples were isolated from monkey bloods collected at predetermined time points and the plasma viral load (RNA copy number/ml) was determined by quantitative real-time reverse transcription-polymerase chain reaction (qRT-PCR). The plasma RNA was extracted by a conventional method and cDNA samples were synthesized by reverse transcription reaction. […] The PCR device used was PE AB17500. The sensitivity of the assay was 100 RNA copies per milliliter of plasma sample.

[4] = Figure 9
Excerpt: Table printed on a drawing sheet, Figure 9
First reader's note: Panel B of Figure 9; each value cell holds the value ± its error, and each column is one route of administration.

SMILES	inhibitory activity further improved, folds ([1]; relative to LP-50)	inhibitory activity as folds of that of T-20 ([1]; relative to T-20) [folds]	serum concentration as folds of the IC50 value (2 pM) ([2]; 72 hours after intravenous injection) [folds]	serum concentration as folds of the IC50 value (2 pM) ([2]; 72 hours after subcutaneous injection) [folds]	level at 72 h ([2]; iv) [ng/mL]	level at time molar at 72 h ([2]; iv) [nM]	level at 72 h ([2]; sc) [ng/mL]	level at time molar at 72 h ([2]; sc) [nM]	monkeys with viral load decreased below the detectable level line ([3]; 2 mg/kg s.c. once a day, fourth day after the treatment, six monkeys)	rebound of virus ([3]; 4th day after administration was stopped)	rebound of virus ([3]; 10th day after administration was stopped)	monkeys with viral load not detected ([3]; 14th day after the treatment)	rebound of virus ([3]; 17th day after administration was stopped)	rebound of viral load ([3]; 24th day after administration was stopped)	therapeutic effect (in words) ([3]; SHIV SF162P3 infected rhesus monkeys)	viral load during subsequent treatment ([3]; administration once per 4 days for 4 weeks)	monkeys with viral load not detected ([3]; eighth day after the treatment)	Fabs | % [4] [%]
CCCCCCCCCCCCCCCC(=O)NCCCC[C@H](NC(=O)[C@H](CCC(=O)O)NC(=O)[C@H](CC(C)C)NC(=O)[C@H](CCCCN)NC(=O)[C@H](CCCCN)NC(=O)[C@H](CC(C)C)NC(=O)[C@H](CCC(=O)O)NC(=O)[C@H](CCC(=O)O)NC(=O)[C@H](CCC(=O)O)NC(=O)[C@H](CC(N)=O)NC(=O)[C@H](CCCCN)NC(=O)[C@H](CCCCN)NC(=O)[C@H](CCC(N)=O)NC(=O)[C@H](CCC(N)=O)NC(=O)[C@H](CCC(=O)O)NC(=O)[C@H](CCC(=O)O)NC(=O)[C@H](C)NC(=O)[C@H](CCCCN)NC(=O)[C@H](CCCCN)NC(=O)[C@H](CC(C)C)NC(=O)[C@H](CC(C)C)NC(=O)[C@H](CCC(=O)O)NC(=O)[C@H](CCC(=O)O)NC(=O)[C@@H](NC(=O)[C@H](CCCCN)NC(=O)[C@H](CCC(N)=O)NC(=O)[C@H](CCC(=O)O)NC(=O)[C@H](Cc1c[nH]c2ccccc12)NC(C)=O)[C@@H](C)CC)C(N)=O [LP-52] (Ac-WEQKIEELLKKAEEQQKKNEEELKKLEK(Palmitoyl)-NH2)	about 2 folds	1859																
CCCCCCCCCCCCCCCCCC(=O)NCCCC[C@H](NC(=O)[C@H](CCC(=O)O)NC(=O)[C@H](CC(C)C)NC(=O)[C@H](CCCCN)NC(=O)[C@H](CCCCN)NC(=O)[C@H](CC(C)C)NC(=O)[C@H](CCC(=O)O)NC(=O)[C@H](CCC(=O)O)NC(=O)[C@H](CCC(=O)O)NC(=O)[C@H](CC(N)=O)NC(=O)[C@H](CCCCN)NC(=O)[C@H](CCCCN)NC(=O)[C@H](CCC(N)=O)NC(=O)[C@H](CCC(N)=O)NC(=O)[C@H](CCC(=O)O)NC(=O)[C@H](CCC(=O)O)NC(=O)[C@H](C)NC(=O)[C@H](CCCCN)NC(=O)[C@H](CCCCN)NC(=O)[C@H](CC(C)C)NC(=O)[C@H](CC(C)C)NC(=O)[C@H](CCC(=O)O)NC(=O)[C@H](CCC(=O)O)NC(=O)[C@@H](NC(=O)[C@H](CCCCN)NC(=O)[C@H](CCC(N)=O)NC(=O)[C@H](CCC(=O)O)NC(=O)[C@H](Cc1c[nH]c2ccccc12)NC(C)=O)[C@@H](C)CC)C(N)=O [LP-80] (Ac-WEQKIEELLKKAEEQQKKNEEELKKLEK(Stearoyl)-NH2)			1010.56	894.51	7.75	2.02	6.86	1.79	three of the six monkeys	did not rebound	one of the monkeys (monkey A)	all six monkeys	the other 5 monkeys except the monkey C	all monkeys	powerful antiviral therapeutic effect	controlled below the detectable level line	five monkeys	39.53
